According to paper PMC3105096, “Construction of Chimeric Dual-Chain Avidin by Tandem Fusion of the Related Avidins” (PLoS ONE, 2011):

How the values were obtained:
[1] = molecular target: T1, AVR4(C122S); also printed AVR4(C112S) (Gallus gallus, UniProt P56734, C146S); experiment: SDS-PAGE thermostability of acylated protein; type: binding; settings: thermal shift of subunit dissociation; Tr without biotin 90 °C; 140 µM D-biotin
T1 construct: recombinant AVR4 with cysteine-to-serine change, tetramer
T1 sequence (P56734 25-150 C146S): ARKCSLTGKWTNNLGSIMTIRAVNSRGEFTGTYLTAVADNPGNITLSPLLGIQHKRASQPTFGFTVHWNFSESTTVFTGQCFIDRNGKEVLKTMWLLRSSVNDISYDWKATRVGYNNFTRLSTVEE
Excerpt: SDS-PAGE thermostability of acylated protein on AVR4(C122S); also printed AVR4(C112S)

[2] = molecular target: chimeric dual-chain avidin dcAVD/AVR4 (tandem fusion of circularly permuted avidin cp54 and circularly permuted AVR4 cp65) (chicken); experiment: SEC; Superdex 75 10/300 GL, 50 ug protein in 50 mM NaPO4 pH 7, 650 mM NaCl; column calibrated with Bio-Rad standards 1.5-67 kDa; dimer of the dual-chain polypeptide (pseudotetramer)

stoichiometry N [2] | Compound | SDS-PAGE / Tr ^(+BTN) (°C) [1]
 | O=C(O)CCCC[C@@H]1SC[C@@H]2NC(=O)N[C@@H]21 [D-biotin] | 95 °C
2 | chimeric dual-chain avidin dcAVD/AVR4 (tandem fusion of circularly permuted avidin cp54 and circularly permuted AVR4 cp65) | 
